From patent publication US6713261B1, “Method for assessing genotoxicity of a compound” (Institut National de la Sante et de la Recherche Medicale, priority 1999, dated 2004)
Where two headings read alike, the source gives them in different places. Starred links: 1 amine or outer side, 2 acyl side, 3 side chain; linkers in the order of their positions; H or OH if unused. Positions of bridges follow the written chain, without caps; N, C: chain ends. Non-standard residues stand in square brackets, D forms with d. Residues, ends and D or L forms follow the SMILES beside them. Chains are numbered I, II in the order given. Actinocin(9to1) = Cc1c2oc3c(C)ccc(C(=O)[*:1])c3nc-2c(C(=O)[*:2])c(N)c1=O; NMeV = CN[C@H](C(=O)O)C(C)C; Sar = CNCC(=O)O

How the values were obtained:
CTLL-2 cells [1] = format: cell-based, mouse; settings: after metabolic activation
CTLL-2-bcl2 cells [2] = format: cell-based, mouse; settings: after metabolic activation
CTLL-2 cells [3] = settings: after metabolic activation
CTLL-2-bcl2 cells [4] = settings: after metabolic activation
CTLL-2 cells [5] = assay: Measurement of apoptosis (Annexin V-FITC, YOPRO-1) in CTLL-2 cells; format: cell-based, mouse
CTLL-2-bcl2 cells [6] = assay: Measurement of apoptosis (Annexin V-FITC, YOPRO-1) in CTLL-2-bcl2 cells; format: cell-based, mouse; settings: for induction of apoptosis (result in words): in parallel to micronucleus test
CTLL-2 cells [7] = assay: Micronucleus test without metabolic activation in CTLL-2 cells; settings: for formation of micronuclei / micronucleated cell frequency (result in words): harvested at 15th hour, without metabolic activation
CTLL-2-bcl2 cells [8] = assay: Micronucleus test without metabolic activation in CTLL-2-bcl2 cells; settings: harvested at 15th hour
CTLL-2 cells [9] = assay: Metaphase analysis test in CTLL-2 cells; format: cell-based, mouse; settings: for aberrant cells: CTLL-2
CTLL-2 cells [10] = settings: mouse, 15 h
human lymphocytes [11] = settings: human lymphocytes treated 44 hours; from 250 μM of dexamethasone; control 2%
human lymphocytes [12] = settings: 44 hours
CTLL-2-bcl2 cells [13] = settings: mouse, 15 h
[14] = CTLL-2 cells, in parallel to micronucleus test

With Cc1c2ccccc2c(C)c2c1ccc1ccccc12 [7,12-dimethylbenz[a]anthracene] the “apoptosis (result in words)” value (CTLL-2 cells [1]) was “apoptosis only on the CTLL-2 cells”, the “apoptosis (result in words)” value (CTLL-2-bcl2 cells [2]) was “apoptosis only on the CTLL-2 cells” and the “formation of micronuclei (result in words)” value (CTLL-2 cells [3]) was “induce the formation of micronuclei”. The “formation of micronuclei (result in words)” value (CTLL-2-bcl2 cells [4]) was “induce the formation of micronuclei”.
Cc1c2oc3c(C)ccc(C(=O)N[C@@H]4C(=O)N[C@H](C(C)C)C(=O)N5CCC[C@H]5C(=O)N(C)CC(=O)N(C)[C@@H](C(C)C)C(=O)O[C@@H]4C)c3nc-2c(C(=O)N[C@@H]2C(=O)N[C@H](C(C)C)C(=O)N3CCC[C@H]3C(=O)N(C)CC(=O)N(C)[C@@H](C(C)C)C(=O)O[C@@H]2C)c(N)c1=O [Actinomycin D] (I: T[dV]P[Sar][NMeV] / II: T[dV]P[Sar][NMeV]; ester I:1-I:C, II:1-II:C; linker I:N-II:N via Actinocin(9to1)) was tested, and the “induction of apoptosis (result in words)” value (CTLL-2 cells [5]; [14]) was “induction of apoptosis”, the “induction of apoptosis (result in words)” value (CTLL-2-bcl2 cells [6]) was “neither apoptosis nor genotoxicity is observed” and the “formation of micronuclei / micronucleated cell frequency (result in words)” value (CTLL-2 cells [7]; CTLL-2 cells) was “positive response in terms of clastogenesis”. For the same molecule, the “formation of micronuclei / micronucleated cell frequency (result in words)” value (CTLL-2-bcl2 cells [8]) was “neither apoptosis nor genotoxicity is observed”.
For COS(C)(=O)=O [MMS, Methyl methanesulfonate], the “induction of apoptosis (result in words)” value (CTLL-2 cells [5]; [14]) was “apoptotic phenomenon is not triggered” and the “induction of apoptosis (result in words)” value (CTLL-2-bcl2 cells [6]) was “apoptotic phenomenon is not triggered”.
For CN(N=O)C(N)=O [MNU, N-methyl-N-nitrosourea], the “induction of apoptosis (result in words)” value (CTLL-2 cells [5]; [14]) was “without inducing apoptosis”, the “induction of apoptosis (result in words)” value (CTLL-2-bcl2 cells [6]) was “without inducing apoptosis” and the “formation of micronuclei / micronucleated cell frequency (result in words)” value (CTLL-2 cells [7]; CTLL-2 cells) was “positive response”. The “formation of micronuclei / micronucleated cell frequency (result in words)” value (CTLL-2-bcl2 cells [8]) was “positive response”.
In the case of COC(=O)Nc1nc2ccc(C(=O)c3cccs3)cc2[nH]1 [Nocodazole, nocodazole], the “induction of apoptosis (result in words)” value (CTLL-2 cells [5]; [14]) is reported as “induce apoptosis”.
C[C@H]1CCC/C=C/[C@@H]2C[C@H](O)C[C@H]2[C@H](O)/C=C/C(=O)O1 [brefeldin A] was tested, and the “induction of apoptosis (result in words)” value (CTLL-2 cells [5]; [14]) was “induce apoptosis”.
With CC[C@@]1(O)C(=O)OCc2c1cc1n(c2=O)Cc2cc3ccccc3nc2-1 [camptothecin] the “induction of apoptosis (result in words)” value (CTLL-2 cells [5]; [14]) was “induce apoptosis”.
COc1cc(/C=C/C(=O)CC(=O)/C=C/c2ccc(O)c(OC)c2)ccc1O [curcumin] was tested, and the “induction of apoptosis (result in words)” value (CTLL-2 cells [5]; [14]) was “induce apoptosis”.
O=P1(N(CCCl)CCCl)NCCCO1 (stereo not drawn) [cyclophosphamide] was tested, and the “apoptosis (result in words)” value (CTLL-2 cells [1]) was “apoptosis only on the CTLL-2 cells”, the “apoptosis (result in words)” value (CTLL-2-bcl2 cells [2]) was “apoptosis only on the CTLL-2 cells” and the “formation of micronuclei (result in words)” value (CTLL-2 cells [3]) was “induce the formation of micronuclei”. The “formation of micronuclei (result in words)” value (CTLL-2-bcl2 cells [4]) was “induce the formation of micronuclei”.
With C[C@@H]1C[C@H]2[C@@H]3CCC4=CC(=O)C=C[C@]4(C)[C@@]3(F)[C@@H](O)C[C@]2(C)[C@@]1(O)C(=O)CO [dexamethasone] the “concentration from which apoptosis increased” value (CTLL-2 cells [5]; CTLL-2, in parallel to metaphase analysis) was 37.5 nM, the apoptosis (CTLL-2 cells [5]; CTLL-2, in parallel to metaphase analysis, 150 nM dexamethasone) was 30% and the apoptosis (CTLL-2 cells [5]; CTLL-2, in parallel to metaphase analysis, from 37.5 nM of dexamethasone, control approximately 7%) was 18%. For the same molecule, the “percentage of apoptotic cells” value (CTLL-2 cells [5]; CTLL-2, Annexin-V-FITC and YOPRO-1, maximum from 50 nM of dexamethasone, negative control 6%) was 30.5%, the aberrant cells (CTLL-2 cells [9]; from 37.5 nM of dexamethasone, control 2%) was 8% and the “chromosomal aberrations (result in words)” value (CTLL-2 cells [9]; CTLL-2 cells) was “chromosome and chromatid breaking but no exchange”. For the same molecule, the “lowest concentration with number of aberrant cells statistically different (p=0.05) from control” value (CTLL-2 cells [9]; CTLL-2 cells) was 37.5 nM, the micronucleated cells (CTLL-2 cells [10]; 50 nM) was 60 ‰ and the aberrant cells (human lymphocytes [11]) was 11%. For the same molecule, the “concentration from which apoptosis increased” value (human lymphocytes [12]) was 250 µM and the apoptosis (human lymphocytes [12]; from 250 μM of dexamethasone, control approximately 16%) was 40%.
For CN1C(=O)CN=C(c2ccccc2)c2cc(Cl)ccc21 [diazepam], the “induction of apoptosis (result in words)” value (CTLL-2 cells [5]) was “without inducing apoptosis”, the “induction of apoptosis (result in words)” value (CTLL-2-bcl2 cells [6]) was “without inducing apoptosis” and the “formation of micronuclei / micronucleated cell frequency (result in words)” value (CTLL-2 cells [7]; CTLL-2 cells) was “positive response”. For the same molecule, the “formation of micronuclei / micronucleated cell frequency (result in words)” value (CTLL-2-bcl2 cells [8]) was “positive response”.
With CCOS(C)(=O)=O [ethyl methanesulfonate] the “induction of apoptosis (result in words)” value (CTLL-2 cells [5]; [14]) was “without inducing apoptosis” and the “induction of apoptosis (result in words)” value (CTLL-2-bcl2 cells [6]) was “without inducing apoptosis”.
With O=c1c(-c2ccc(O)cc2)coc2cc(O)cc(O)c12 [genistein] the “induction of apoptosis (result in words)” value (CTLL-2 cells [5]; [14]) was “induce apoptosis”.
With CN1C(=O)[C@]23CC4=CC=C[C@H](O)[C@H]4N2C(=O)[C@@]1(CO)SS3 [gliotoxin] the level of apoptosis (CTLL-2 cells [5]) was 45%, the apoptosis (CTLL-2 cells [5]; CTLL-2, in parallel to metaphase analysis, […], controls 5%) was 17% and the “lowest concentration with apoptosis different from control (p=0.01)” value (CTLL-2 cells [5]; CTLL-2 cells) was 100 nM. For the same molecule, the “induction of apoptosis (result in words)” value (CTLL-2-bcl2 cells [6]) was “apoptosis was maintained at a lower rate”, the aberrant cells (CTLL-2 cells [9]; from 50 μM of gliotoxin, control 1%) was 10% and the “chromosomal aberrations (result in words)” value (CTLL-2 cells [9]; CTLL-2 cells) was “positive response”. For the same molecule, the “lowest concentration with aberrations / positive response in terms of clastogenesis” value (CTLL-2 cells [9]; CTLL-2 cells) was 50 µM, the “lowest concentration with increase in micronuclei versus control” value (CTLL-2 cells [7]; CTLL-2 cells) was 100 nM and the “number of aberrant (micronucleated) cells” value (CTLL-2 cells [7]; nontransfected CTLL-2, gliotoxin at the highest dose (200 nM), increased from 5‰) was 20 ‰. The “formation of micronuclei / micronucleated cell frequency (result in words)” value (CTLL-2-bcl2 cells [8]) was “as was the number of micronucleated cells”.
For CSCCC=O [methional], the “level of apoptotic cells” value (CTLL-2 cells [5]; CTLL-2, methional at the highest dose (150 μM), control 6.5%) was 24%, the “lowest concentration with statistically significant (p=0.01) induction of apoptosis” value (CTLL-2 cells [5]; CTLL-2 cells, first dose) was 60.8 µM and the “induction of apoptosis (result in words)” value (CTLL-2-bcl2 cells [6]) was “neither apoptosis nor micronuclei appeared”. The “chromosomal aberrations (result in words)” value (CTLL-2 cells [9]; CTLL-2 cells) was “structural aberrations, such as breaks or gaps”, the “lowest concentration with aberrations / positive response in terms of clastogenesis” value (CTLL-2 cells [9]; CTLL-2 cells) was 18.75 µM and the “cells bearing chromosomal aberrations” value (CTLL-2 cells [9]; nontransfected CTLL-2, methional 18.75 μM, control 3%) was 13%. For the same molecule, the “lowest concentration with statistically significant (p=0.01) micronucleated cells” value (CTLL-2 cells [10]) was 60.8 µM and the “number of micronucleated cells” value (CTLL-2 cells [10]; 150 μM) was 98 ‰.
CCN(CC)CCCC(C)Nc1c2ccc(Cl)cc2nc2ccc(OC)cc12 (stereo not drawn) [quinacrin] was tested, and the “induction of apoptosis (result in words)” value (CTLL-2 cells [5]; [14]) was “induce apoptosis”.
In the case of CN[C@@H]1C[C@H]2O[C@@](C)([C@@H]1OC)n1c3ccccc3c3c4c(c5c6ccccc6n2c5c31)C(=O)NC4 [staurosporine], the “induction of apoptosis (result in words)” value (CTLL-2 cells [5]; [14]) is reported as “induction of apoptosis”, the “induction of apoptosis (result in words)” value (CTLL-2-bcl2 cells [6]) is reported as “neither apoptosis nor genotoxicity is observed” and the “formation of micronuclei / micronucleated cell frequency (result in words)” value (CTLL-2 cells [7]; CTLL-2 cells) is reported as “positive response in terms of clastogenesis”. For the same molecule, the “formation of micronuclei / micronucleated cell frequency (result in words)” value (CTLL-2-bcl2 cells [8]) was “neither apoptosis nor genotoxicity is observed”.
With CC(=O)O[C@H]1C(=O)[C@@]2(C)[C@H]([C@H](OC(=O)c3ccccc3)[C@]3(O)C[C@H](OC(=O)[C@H](O)[C@@H](NC(=O)c4ccccc4)c4ccccc4)C(C)=C1C3(C)C)[C@]1(OC(C)=O)CO[C@@H]1C[C@@H]2O [taxol] the “induction of apoptosis (result in words)” value (CTLL-2 cells [5]; [14]) was “induce apoptosis”, the “apoptosis at the dose that increases micronuclei” value (CTLL-2 cells [5]; CTLL-2 cells, taxol 25 nM) was “do not cause apoptosis” and the “apoptosis at the dose that increases micronuclei” value (CTLL-2-bcl2 cells [6]; taxol 50 nM) was “do not cause apoptosis”. For the same molecule, the “lowest concentration with increase in micronuclei versus control” value (CTLL-2 cells [10]) was 25 nM, the “concentration at which the difference in number of micronuclei between CTLL-2 and CTLL-2-bcl2 lines appears” value (CTLL-2-bcl2 cells [13]) was 25 nM and the “lowest concentration with increase in number of micronuclei” value (CTLL-2-bcl2 cells [13]) was 50 nM.
For mitomycin C, the “formation of micronuclei / micronucleated cell frequency (result in words)” value (CTLL-2 cells [7]; CTLL-2 cells) was “micronucleated cell frequencies increase significantly with the dose” and the “formation of micronuclei / micronucleated cell frequency (result in words)” value (CTLL-2-bcl2 cells [8]) was “micronucleated cell frequencies increase significantly with the dose”.
In the case of thapsigargine, the “induction of apoptosis (result in words)” value (CTLL-2 cells [5]; [14]) is reported as “induce apoptosis”.
